This data set can be described thus: Water Miscibility Test. Format: physicochemical. The settings on record: 0.5 g ionic liquid and 4.5 g de-ionized water, sonicated 1.5 hours; miscible if homogenous transparent system within 15 minutes of standing. How it is done: The water miscibility of an ionic liquid is measured by the following water miscibility test. A mixture of 0.5 g ionic liquid and 4.5 g de-ionized water are sonicated in a Bransonic Ultrasonic Bath (model# 1210R-MTH, 50/60 Hz, 117 volts, 1.3 AMPS) according to manufacture's specifications for 1.5 hours. Thereafter, if a homogenous transparent system results within 15 minutes of standing without agitation, then the ionic liquid is water miscible.

Regarding `CCCCCCCCCCCCOCCOS(=O)(=O)[O-].CCCCCCCCCCCC[N+](C)(C)O` [Example 2, N-dodecyl-N,N-dimethylamine N-oxide dodecylethoxysulfate], the “Water Miscible?” value was “No”.
To `CC(C)CC(C)CC(CC(C)C)OCCOCCOCCOS(=O)(=O)[O-].CCCCCCCCCCCC[N+](C)(C)O` (centres unmarked) [Example 1, N-dodecyl-N,N-dimethylamine N-oxide 2,4,8-trimethylnonyl-6-triethoxysulfate] belongs “No”.

Source of the values: US20100099314A1, “IONIC LIQUIDS DERIVED FROM SURFACTANTS” (priority 2004, published 2010).
